#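 Step 1: Grow cells in 96-well plates. Step 2: Expose to compound for 48 hours at 5 concentrations. Step 3: Interpolate endpoints linearly; if unreached, use highest concentration. GI50: concentration for 50% inhibition of growth.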 Activity calls are given as the source filed them. No stated cut-off is given here; in the data, active = GI50 up to about 1.1 µM and inactive = higher.
# Experiments:
# Assay in all cases: NCI-60 cell line screen, 48 h
# 786-0 = tested on: 786-0
# A498 = tested on: A498
# A549 = tested on: A549
# ACHN = tested on: ACHN
# BT-549 = tested on: BT-549
# CAKI-1 = tested on: CAKI-1
# CCRF-CEM = tested on: CCRF-CEM
# COLO 205 = tested on: COLO 205
# DU-145 = tested on: DU-145
# EKVX = tested on: EKVX
# HCT-116 = tested on: HCT-116
# HCT-15 = tested on: HCT-15
# HL-60 = tested on: HL-60
# HOP-62 = tested on: HOP-62
# HOP-92 = tested on: HOP-92
# HT-29 = tested on: HT-29
# Hs-578T = tested on: Hs-578T
# IGROV-1 = tested on: IGROV-1
# K562 = tested on: K562
# KM12 = tested on: KM12
# LOX IMVI = tested on: LOX IMVI
# M14 = tested on: M14
# MCF7 = tested on: MCF7
# MDA-MB-231 = tested on: MDA-MB-231
# MDA-MB-435 = tested on: MDA-MB-435
# MDA-N = tested on: MDA-N
# MOLT-4 = tested on: MOLT-4
# Malme-3M = tested on: Malme-3M
# NCI-H226 = tested on: NCI-H226
# NCI-H23 = tested on: NCI-H23
# NCI-H460 = tested on: NCI-H460
# NCI-H522 = tested on: NCI-H522
# NCI/ADR-RES = tested on: NCI/ADR-RES
# OVCAR-3 = tested on: OVCAR-3
# OVCAR-4 = tested on: OVCAR-4
# OVCAR-5 = tested on: OVCAR-5
# OVCAR-8 = tested on: OVCAR-8
# PC-3 = tested on: PC-3
# RPMI-8226 = tested on: RPMI-8226
# RXF 393 = tested on: RXF 393
# SF-268 = tested on: SF-268
# SF-295 = tested on: SF-295
# SF-539 = tested on: SF-539
# SK-MEL-28 = tested on: SK-MEL-28
# SK-MEL-2 = tested on: SK-MEL-2
# SK-MEL-5 = tested on: SK-MEL-5
# SK-OV-3 = tested on: SK-OV-3
# SN12C = tested on: SN12C
# SNB-19 = tested on: SNB-19
# SNB-75 = tested on: SNB-75
# SW-620 = tested on: SW-620
# T47D = tested on: T47D
# TK-10 = tested on: TK-10
# U-251 = tested on: U-251
# UACC-257 = tested on: UACC-257
# UACC-62 = tested on: UACC-62
# UO-31 = tested on: UO-31
smiles,measurement,setting,value
Clc1ccc(/C=C/c2nc(Cl)c(-c3ccc(Cl)cc3)c(Cl)n2)cc1,GI50,786-0,43.8 µM (inactive)
same,GI50,A498,50.6 µM (inactive)
same,GI50,A549,37.9 µM (inactive)
same,GI50,ACHN,35.2 µM (inactive)
same,GI50,BT-549,> 100 µM (inactive)
same,GI50,CAKI-1,74.8 µM (inactive)
same,GI50,CCRF-CEM,20.4 µM (inactive)
same,GI50,COLO 205,> 100 µM (inactive)
same,GI50,DU-145,76.4 µM (inactive)
same,GI50,EKVX,69.8 µM (inactive)
same,GI50,HCT-116,46.8 µM (inactive)
same,GI50,HCT-15,> 100 µM
same,GI50,HL-60,14.3 µM (inactive)
same,GI50,HOP-62,> 100 µM (inactive)
same,GI50,HOP-92,> 100 µM (inactive)
same,GI50,HT-29,48.9 µM (inactive)
same,GI50,Hs-578T,> 100 µM (inactive)
same,GI50,IGROV-1,60 µM (inactive)
same,GI50,K562,32.1 µM (inactive)
same,GI50,KM12,> 100 µM (inactive)
same,GI50,LOX IMVI,86.9 µM (inactive)
same,GI50,M14,29.7 µM (inactive)
same,GI50,MCF7,45.5 µM (inactive)
same,GI50,MDA-MB-231,67 µM (inactive)
same,GI50,MDA-MB-435,53.2 µM (inactive)
same,GI50,MDA-N,59.4 µM (inactive)
same,GI50,MOLT-4,32.5 µM (inactive)
same,GI50,Malme-3M,> 100 µM (inactive)
same,GI50,NCI-H226,80.9 µM (inactive)
same,GI50,NCI-H23,27.1 µM (inactive)
same,GI50,NCI-H460,61 µM (inactive)
same,GI50,NCI-H522,31.5 µM (inactive)
same,GI50,NCI/ADR-RES,68.2 µM (inactive)
same,GI50,OVCAR-3,> 100 µM (inactive)
same,GI50,OVCAR-4,71.6 µM (inactive)
same,GI50,OVCAR-5,> 100 µM (inactive)
same,GI50,OVCAR-8,> 100 µM (inactive)
same,GI50,PC-3,42.6 µM (inactive)
same,GI50,RPMI-8226,23.8 µM (inactive)
same,GI50,RXF 393,53.8 µM (inactive)
same,GI50,SF-268,> 100 µM (inactive)
same,GI50,SF-295,52.1 µM (inactive)
same,GI50,SF-539,57.7 µM (inactive)
same,GI50,SK-MEL-28,> 100 µM (inactive)
same,GI50,SK-MEL-2,25.6 µM (inactive)
same,GI50,SK-MEL-5,38.8 µM (inactive)
same,GI50,SK-OV-3,> 100 µM (inactive)
same,GI50,SN12C,89.9 µM (inactive)
same,GI50,SNB-19,> 100 µM (inactive)
same,GI50,SNB-75,19.3 µM (inactive)
same,GI50,SW-620,68.7 µM (inactive)
same,GI50,T47D,38.3 µM (inactive)
same,GI50,TK-10,62.5 µM (inactive)
same,GI50,U-251,40.6 µM (inactive)
same,GI50,UACC-257,39.3 µM (inactive)
same,GI50,UACC-62,> 100 µM (inactive)
same,GI50,UO-31,13.6 µM (inactive)
COc1ccc(/N=C/N(C)C)c(C)c1,GI50,786-0,13.6 µM (inactive)
same,GI50,A498,18.1 µM (inactive)
same,GI50,A549,7.23 µM (inactive)
same,GI50,ACHN,18.7 µM (inactive)
same,GI50,BT-549,18.3 µM (inactive)
same,GI50,CAKI-1,35.6 µM (inactive)
same,GI50,CCRF-CEM,3.28 µM (inactive)
same,GI50,COLO 205,10.5 µM (inactive)
same,GI50,DU-145,4.16 µM (inactive)
same,GI50,EKVX,10.6 µM (inactive)
same,GI50,HCT-116,4.15 µM (inactive)
same,GI50,HCT-15,35.3 µM
same,GI50,HL-60,0.13 µM (active)
same,GI50,HOP-62,18.3 µM (inactive)
same,GI50,HOP-92,10.5 µM (inactive)
same,GI50,HT-29,5.4 µM (inactive)
same,GI50,Hs-578T,1.52 µM (inactive)
same,GI50,IGROV-1,9.48 µM (inactive)
same,GI50,K562,2.51 µM (inactive)
same,GI50,LOX IMVI,3.15 µM (inactive)
same,GI50,M14,13.6 µM (inactive)
same,GI50,MCF7,8.26 µM (inactive)
same,GI50,MDA-MB-231,5.83 µM (inactive)
same,GI50,MDA-MB-435,6.08 µM (inactive)
same,GI50,MDA-N,6.18 µM (inactive)
same,GI50,MOLT-4,2.6 µM (inactive)
same,GI50,Malme-3M,9.57 µM (inactive)
same,GI50,NCI-H226,11.2 µM (inactive)
same,GI50,NCI-H23,2 µM (inactive)
same,GI50,NCI-H522,2.43 µM (inactive)
same,GI50,NCI/ADR-RES,44.7 µM (inactive)
same,GI50,OVCAR-3,2.36 µM (inactive)
same,GI50,OVCAR-4,9.42 µM (inactive)
same,GI50,OVCAR-5,20.5 µM (inactive)
same,GI50,OVCAR-8,7.13 µM (inactive)
same,GI50,PC-3,3.17 µM (inactive)
same,GI50,RPMI-8226,> 100 µM (inactive)
same,GI50,RXF 393,10.6 µM (inactive)
same,GI50,SF-268,19 µM (inactive)
same,GI50,SF-295,11 µM (inactive)
same,GI50,SF-539,22.9 µM (inactive)
same,GI50,SK-MEL-28,12.6 µM (inactive)
same,GI50,SK-MEL-2,5.15 µM (inactive)
same,GI50,SK-MEL-5,3.01 µM (inactive)
same,GI50,SK-OV-3,18.7 µM (inactive)
same,GI50,SN12C,14.2 µM (inactive)
same,GI50,SNB-19,21.6 µM (inactive)
same,GI50,SNB-75,16.7 µM (inactive)
same,GI50,T47D,9.55 µM (inactive)
same,GI50,TK-10,19.8 µM (inactive)
same,GI50,U-251,4.28 µM (inactive)
same,GI50,UACC-257,2.42 µM (inactive)
same,GI50,UACC-62,7.08 µM (inactive)
same,GI50,UO-31,26.1 µM (inactive)

# — ChEMBL document CHEMBL1201862, “PubChem BioAssay data set” (2004)
